In assay [1] the test system is acute liver disease caused by CCl4 (Wister-strain rat). Kind of assay: Preventive action on deviation of GOT value and GPT value in vivo using model of acute liver disease caused by CCl4. Particulars: rat, 30 mg/kg, 3 hour before oral CCl4. Here is the method:
CCl4 in olive oil (concentration: 50%) was orally administered to a Wister-strain rat (body weight: 170-180 g) fasted for 24 hrs., at a dose of 1 ml/kg, to cause acute liver disease. […] For control group, 1.0% methylcellulose (MC) was administered in place of the piperazine derivative. For normal group, a simple olive oil was administered in place of the CCl4 -containing olive oil. For the administration, the piperazine derivative was employed in the form of a dispersion in aqueous MC solution (concentration: 1.0%). At 24 hours after the administration of CCl4, the rat was abdominally sectioned under ether anesthesia. From the abrominal large vein, a blood was collected. The collected blood was subjected to centrifugal separation at 3,000 r.p.m. for 10 min to obtain its plasma. […] The results are set forth in Table 4 in terms of a ratio (%) of suppression (prevention) of GOT or GPT. In Table 4, "***" means 90-100%, "**" means 60-90%, and "*" means 30-60%. The ratio of suppression is calculated according to the following equation. [formula]

Assay [2] relates to lipid peroxidation in rat hepatocyte. Kind of assay: Inhibitory action on lipid peroxidation (rat hepatocyte, TBA color formation, absorbance at 530 nm). As to conditions: 37° C., 1 hour; for Inhibition ratio (at Final Concentration of Tested Compound) 10^-4 M: final concentration 10^-4 M, 100 µM; for Inhibition ratio (at Final Concentration of Tested Compound) 10^-5 M: final concentration 10^-5 M, 10 µM. It is filed as biochemical. Here is the method:
A hepatocyte was isolated from rat according to the method of Ui et al (Hiroshi Oka and Tadao Ui: "Isolated Cells--Experimental and Application",page 91). The determination of lipid peroxidation was performed using a died hepatocyte which had been frozen at -85° C. and stored at the temperature and which was melted when the experimental was done. […] The centrifugal tube was shaken at 37° C. for 1 hour for performing a reaction, and then placed into an ice-water bath to terminate the reaction. […] The centrifugal tube was taken out of the ice-water bath and placed in a water bath (kept at 95°-98° C.). The content of the tube was heated in the bath for 1 hour for developing color-formation. After the heating was complete, the content of the tube was cooled and subjected to centrifugal separation. The inhibitory action on lipid peroxidation of the sample was determined by measuring absorbance at 530 nm. The determined inhibitory action is expressed inhibition ratio by percent (%) calculated by the following equation: [formula] In Table 3, the number of the tested compound corresponds to the identical number set forth in Tables 1 and 2 for identifying the compounds of the invention.

Where [3] appears, read: plasma GOT at 24 hours after CCl4, read-out: ratio (%) of suppression (prevention) of GOT.
Setting [4] is: plasma GPT at 24 hours after CCl4, read-out: ratio (%) of suppression (prevention) of GPT.

Like-named read-outs stand apart in the source and are kept apart here.

As to `CSC(=S)N1CCN(Cc2ccccc2)CC1` [Compound 1], the inhibition in vivo at 30 mg/kg in assay [1] (setting [3]) and in assay [1] (setting [4]) was 30 to 60% in each case.
Consider `CSC(=S)N1CCN(Cc2ccccc2Cl)CC1` [Compound 2, Methyl 4-(2-chlorobenzyl)-1-piperazinecarbodithioate], for which the inhibition in vivo at 30 mg/kg in assay [1] (setting [3]) is 30 to 60%.
As to `CSC(=S)N1CCN(Cc2ccccc2C)CC1` [Compound 3, Methyl 4-(2-methylbenzyl)-1-piperazinecarbodithioate], the inhibition in vivo at 30 mg/kg in assay [1] (setting [3]) and in assay [1] (setting [4]) was 60 to 90% in each case.
With `COc1cccc(CN2CCN(C(=S)SC)CC2)c1` [Compound 6, Methyl 4-(3-methoxybenzyl)-1-piperazinecarbodithioate], the inhibition in vivo at 30 mg/kg in assay [1] (setting [3]) and in assay [1] (setting [4]) was 90 to 100% in each case.
For `COc1ccc(CN2CCN(C(=S)SC)CC2)cc1` [Compound 7, Methyl 4-(4-methoxybenzyl)-1-piperazinecarbodithioate], the inhibition in vivo at 30 mg/kg is 60 to 90% in assay [1] (setting [3]) and 30 to 60% in assay [1] (setting [4]).
In the same order, the values of `CSC(=S)N1CCN(Cc2ccccc2SC)CC1` [Compound 9, Methyl 4-(2-methylthiobenzyl)-1-piperazinecarbodithioate] are 60 to 90% and 60 to 90%.
On the same counts, the results for `CSC(=S)N1CCN(Cc2ccccc2[N+](=O)[O-])CC1` [Compound 10, Methyl 4-(2-nitrobenzyl)-1-piperazinecarbodithioate] are 60 to 90% and 30 to 60%.
With `CSC(=S)N1CCN(Cc2cccc(O)c2O)CC1` [Compound 15, Methyl 4-(2,3-dihydroxybenzyl)-1-piperazinecarbodithioate], the inhibition in vivo at 30 mg/kg in assay [1] (setting [3]) and in assay [1] (setting [4]) was 90 to 100% throughout.
In the case of `COc1cccc(CN2CCN(C(=S)SC)CC2)c1O` [Compound 18, Methyl 4-(2-hydroxy-3-methoxybenzyl)-1-piperazinecarbodithioate], the inhibition in vivo at 30 mg/kg in assay [1] (setting [3]) and in assay [1] (setting [4]) was 60 to 90% each time.
As for `COc1ccc(O)c(CN2CCN(C(=S)SC)CC2)c1` [Compound 20, Methyl 4-(2-hydroxy-5-methoxybenzyl)-1-piperazinecarbodithioate], the inhibition in vivo at 30 mg/kg in assay [1] (setting [3]) and in assay [1] (setting [4]) was 60 to 90% in each case.
For the compound `CSC(=S)N1CCN(Cc2cc(OC(C)=O)ccc2O)CC1` [Compound 21, Methyl 4-(5-acetoxy-2-hydroxybenzyl)-1-piperazinecarbodithioate], the inhibition in vivo at 30 mg/kg in assay [1] (setting [3]) and in assay [1] (setting [4]) was 60 to 90% in each case.
Turning to `COc1ccc(CN2CCN(C(=S)SC)CC2)cc1OC` [Compound 31, Methyl 4-(3,4-dimethoxybenzyl)-1-piperazinecarbodithioate], the inhibition in vivo at 30 mg/kg in assay [1] (setting [3]) lay within 60 to 90%; in assay [1] (setting [4]), 30 to 60%.
Turning to `CSC(=S)N1CCN(Cc2ccc(OC(C)=O)c(OC(C)=O)c2OC(C)=O)CC1` [Compound 34, Methyl 4-(2,3,4-triacetoxybenzyl)-1-piperazinecarbodithioate], the inhibition in vivo at 30 mg/kg in assay [1] (setting [4]) lay in the range of 30 to 60%.
Consider `COc1ccc(CN2CCN(C(=S)SC)CC2)c(O)c1OC` [Compound 35, Methyl 4-(3,4-dimethoxy-2-hydroxybenzyl)-1-piperazinecarbodithioate], for which the inhibition in vivo at 30 mg/kg in assay [1] (setting [3]) and in assay [1] (setting [4]) was 60 to 90% throughout.
`COc1cc(O)c(CN2CCN(C(=S)SC)CC2)c(OC)c1` [Compound 37, Methyl 4-[(4,6-dimethoxy-2-hydroxy)benzyl]-1-piperazinecarbodithioate]: the inhibition in vivo at 30 mg/kg in assay [1] (setting [3]) and in assay [1] (setting [4]) was 60 to 90% each time.
On to `CSC(=S)N1CCN(Cc2cc(O)c(O)c(O)c2)CC1` [Compound 40, Methyl 4-(3,4,5-trihydroxybenzyl)-1-piperazinecarbodithioate], for which the “Inhibition ratio (at Final Concentration of Tested Compound) 10^-4 M” value in assay [2] was 92.6%.
For `CSC(=S)N1CCN(Cc2cc(OC(C)=O)c(OC(C)=O)c(OC(C)=O)c2)CC1` [Compound 42, Methyl 4-(3,4,5-triacetoxybenzyl)-1-piperazinecarbodithioate], in assay [2], the “Inhibition ratio (at Final Concentration of Tested Compound) 10^-4 M” value was determined as 71.6% and the “Inhibition ratio (at Final Concentration of Tested Compound) 10^-5 M” value is given as 71.6%.
Regarding `CSC(=S)N1CCN(Cc2c(C)c(O)c(C)c(C)c2O)CC1` [Compound 46, Methyl 4-[(2,5-dihydroxy-3,4,6-trimethyl)benzyl]-1-piperazinecarbodithioate], the inhibition in vivo at 30 mg/kg in assay [1] (setting [3]) and in assay [1] (setting [4]) was 90 to 100% each time.
On to `COc1ccc(C(=O)N2CCN(C(=S)SC)CC2)c(OC)c1OC` [Compound 56, Methyl 4-(2,3,4-trimethoxybenzoyl)-1-piperazinecarbodithioate], for which the inhibition in vivo at 30 mg/kg in assay [1] (setting [3]) and in assay [1] (setting [4]) was 90 to 100% in each case.
For the compound `COc1ccc(CCN2CCN(C(=S)SC)CC2)c(OC)c1OC` [Compound 67, Methyl 4-{2-(2,3,4-trimethoxyphenyl)ethyl}-1-piperazinecarbodithioate], the inhibition in vivo at 30 mg/kg in assay [1] (setting [3]) and in assay [1] (setting [4]) was 30 to 60% in each case.
Regarding `CSC(=S)N1CCN(CCc2ccc(O)c(O)c2O)CC1` [Compound 68, Methyl 4-{2-(2,3,4-trihydroxyphenyl)ethyl}-1-piperazinecarbodithioate], the inhibition in vivo at 30 mg/kg in assay [1] (setting [3]) and in assay [1] (setting [4]) was 60 to 90% throughout.
In the case of `COc1ccc(C(=O)CN2CCN(C(=S)SC)CC2)c(OC)c1OC` [Compound 71, Methyl 4-{2-(2,3,4-trimethoxyphenyl)-2-oxo}ethyl-1-piperazinecarbodithioate], the inhibition in vivo at 30 mg/kg in assay [1] (setting [3]) was 60 to 90%; in assay [1] (setting [4]), 30 to 60%.
Take `CSC(=S)N1CCN(CC(=O)c2ccc(O)c(O)c2)CC1` [Compound 72, Methyl 4-{2-(3,4-dihydroxyphenyl)-2-oxo}ethyl-1-piperazinecarbodithioate]: in assay [2], the “Inhibition ratio (at Final Concentration of Tested Compound) 10^-4 M” value came to 74.8% and the “Inhibition ratio (at Final Concentration of Tested Compound) 10^-5 M” value was determined as 58.2%.
Turning to `COc1cc(CN2CCN(C(=S)S)CC2)cc(OC)c1OC` [Compound 89, Sodium 4-(3,4-5-trimethoxybenzyl)-1-piperazinecarbodithioate], the “Inhibition ratio (at Final Concentration of Tested Compound) 10^-4 M” value in assay [2] (60 min) came to 90.2%.
On to `COc1ccc(CN2CCN(C(=S)S)CC2)c(OC)c1OC` [Compound 93, 4-(2,3,4-Trimethoxybenzyl)-1-piperazinecarbodithioic acid], for which the inhibition in vivo at 30 mg/kg in assay [1] (setting [3]) and in assay [1] (setting [4]) was 90 to 100% in each case.
Consider `Oc1ccc(CN2CCN(C(=S)SCc3ccccc3)CC2)c(O)c1O` [Compound 100, Benzyl 4-(2,3,4-trihydroxybenzyl)-1-piperazinecarbodithioate], for which the inhibition in vivo at 30 mg/kg in assay [1] (setting [4]) is 30 to 60%.
With `CSC(=S)N1CCN(Cc2c(O)c(O)cc3ccc(=O)oc23)CC1` [Compound 106, Methyl 4-(6,7-dihydroxycumarin-8-yl)methyl-1-piperazinecarbodithioate], in assay [2], the “Inhibition ratio (at Final Concentration of Tested Compound) 10^-4 M” value was found to be 89.0% and the “Inhibition ratio (at Final Concentration of Tested Compound) 10^-5 M” value was 88.1%.
Consider `COc1cc(CN2CCN(C(=S)S)CC2)cc(OC)c1OC` [Compound 108, 4-(3,4,5-Trimethoxybenzyl)-1-piperazinecarbodithioic acid], for which the “Inhibition ratio (at Final Concentration of Tested Compound) 10^-4 M” value in assay [2] (60 min) was found to be 72.6%. The “Inhibition ratio (at Final Concentration of Tested Compound) 10^-5 M” value in assay [2] was 39.2%.
Turning to `Oc1cc(CN2CCN(C(=S)S)CC2)cc(O)c1O` [Compound 109, 4-(3,4,5-Trihydroxybenzyl)-1-piperazinecarbodithioic acid], in assay [2], the “Inhibition ratio (at Final Concentration of Tested Compound) 10^-4 M” value is listed as 74.9% and the “Inhibition ratio (at Final Concentration of Tested Compound) 10^-5 M” value amounted to 24.2%.
Consider `CSC(=S)N1CCN(CC2=CC(=O)C=CC2=O)CC1` [Compound 110, Methyl 4-(1,4-benzoquinonylmethyl)-1-piperazinecarbodithioate], for which the inhibition in vivo at 30 mg/kg in assay [1] (setting [3]) and in assay [1] (setting [4]) was 90 to 100% in each case.
Take `COC1=C(OC)C(=O)C(CN2CCN(C(=S)SC)CC2)=C(C)C1=O` [Compound 118, Methyl 4-(5,6-dimethoxy-3-methyl-1,4-benzoquinonylmethyl)-1-piperazinecarbodithioate]: the values for the inhibition in vivo at 30 mg/kg in assay [1] (setting [3]) and in assay [1] (setting [4]) were 60 to 90% and 30 to 60%, respectively.

Source of the values: patent publication US5070089A, “Therapeutic agent for liver disease and piperazine derivatives” (Nippon Chemiphar Co., Ltd., priority 1988, dated 1991).
